Assay results as given in the supplement of paper PMC8882468.

Test system: HCI-024 (organoid from a breast cancer xenograft)
Experiment: CTG-3D luminescence at 96 h relative to day-0 seeding control (ratio to day 0); higher = more growth / less cytotoxicity; PDxO 3D drug screen, 96 h, CTG-3D normalised to day-0 seeding control.
Conditions: 625 fM; days in culture: 105

SMILES | CTG-3D luminescence at 96 h
CC(C)(C(=O)NCC(F)(F)C(F)(F)F)C(=O)N[C@@H]1C(=O)Nc2ccccc2-c2ccccc21 | 1.91
CCN(c1cc(C#CCN2CCOCC2)cc(C(=O)NCc2c(C)cc(C)[nH]c2=O)c1C)[C@H]1CC[C@H](N(C)CCOC)CC1 | 1.42
NC(=O)Nc1cc(-c2cccc(F)c2)sc1C(=O)N[C@H]1CCCNC1 [AZD7762] | 1.9
O=C(/C=C/c1cccnc1)NCCCCC1CCN(C(=O)c2ccccc2)CC1 [FK866] | 2.1
CCc1c2c(nc3ccc(O)cc13)-c1cc3c(c(=O)n1C2)COC(=O)[C@]3(O)CC [SN-38] | 1.9
CCN1CCN(Cc2ccc(Nc3ncc(F)c(-c4cc(F)c5nc(C)n(C(C)C)c5c4)n3)nc2)CC1 [abemaciclib] | 1.87
C=CCn1c(=O)c2cnc(Nc3ccc(N4CCN(C)CC4)cc3)nc2n1-c1cccc(C(C)(C)O)n1 [adavosertib] | 2.06

Same assay, conditions: 625 fM; days in culture: 122

SMILES | CTG-3D luminescence at 96 h
CC(C)(C(=O)NCC(F)(F)C(F)(F)F)C(=O)N[C@@H]1C(=O)Nc2ccccc2-c2ccccc21 | 3.41
CCN(c1cc(C#CCN2CCOCC2)cc(C(=O)NCc2c(C)cc(C)[nH]c2=O)c1C)[C@H]1CC[C@H](N(C)CCOC)CC1 | 2.18
NC(=O)Nc1cc(-c2cccc(F)c2)sc1C(=O)N[C@H]1CCCNC1 [AZD7762] | 2.89
O=C(/C=C/c1cccnc1)NCCCCC1CCN(C(=O)c2ccccc2)CC1 [FK866] | 2.91
CCc1c2c(nc3ccc(O)cc13)-c1cc3c(c(=O)n1C2)COC(=O)[C@]3(O)CC [SN-38] | 2.86
CCN1CCN(Cc2ccc(Nc3ncc(F)c(-c4cc(F)c5nc(C)n(C(C)C)c5c4)n3)nc2)CC1 [abemaciclib] | 3.21
C=CCn1c(=O)c2cnc(Nc3ccc(N4CCN(C)CC4)cc3)nc2n1-c1cccc(C(C)(C)O)n1 [adavosertib] | 2.52

Same assay, conditions: 625 fM; days in culture: 163

SMILES | CTG-3D luminescence at 96 h
CC(C)(C(=O)NCC(F)(F)C(F)(F)F)C(=O)N[C@@H]1C(=O)Nc2ccccc2-c2ccccc21 | 2.36
CCN(c1cc(C#CCN2CCOCC2)cc(C(=O)NCc2c(C)cc(C)[nH]c2=O)c1C)[C@H]1CC[C@H](N(C)CCOC)CC1 | 1.9
NC(=O)Nc1cc(-c2cccc(F)c2)sc1C(=O)N[C@H]1CCCNC1 [AZD7762] | 2.34
O=C(/C=C/c1cccnc1)NCCCCC1CCN(C(=O)c2ccccc2)CC1 [FK866] | 1.89
CCc1c2c(nc3ccc(O)cc13)-c1cc3c(c(=O)n1C2)COC(=O)[C@]3(O)CC [SN-38] | 2.01
CCN1CCN(Cc2ccc(Nc3ncc(F)c(-c4cc(F)c5nc(C)n(C(C)C)c5c4)n3)nc2)CC1 [abemaciclib] | 1.89
C=CCn1c(=O)c2cnc(Nc3ccc(N4CCN(C)CC4)cc3)nc2n1-c1cccc(C(C)(C)O)n1 [adavosertib] | 2.56

Test system: HCI-001 (organoid from a triple-negative breast cancer xenograft)
Experiment: as above
Conditions: 12.5 pM; days in culture: 240

SMILES | CTG-3D luminescence at 96 h
CC(C)(C(=O)NCC(F)(F)C(F)(F)F)C(=O)N[C@@H]1C(=O)Nc2ccccc2-c2ccccc21 | 1.46
CCN(c1cc(C#CCN2CCOCC2)cc(C(=O)NCc2c(C)cc(C)[nH]c2=O)c1C)[C@H]1CC[C@H](N(C)CCOC)CC1 | 1.66
NC(=O)Nc1cc(-c2cccc(F)c2)sc1C(=O)N[C@H]1CCCNC1 [AZD7762] | 1.67
O=C(/C=C/c1cccnc1)NCCCCC1CCN(C(=O)c2ccccc2)CC1 [FK866] | 1.51
CCc1c2c(nc3ccc(O)cc13)-c1cc3c(c(=O)n1C2)COC(=O)[C@]3(O)CC [SN-38] | 1.51
CCN1CCN(Cc2ccc(Nc3ncc(F)c(-c4cc(F)c5nc(C)n(C(C)C)c5c4)n3)nc2)CC1 [abemaciclib] | 1.34
C=CCn1c(=O)c2cnc(Nc3ccc(N4CCN(C)CC4)cc3)nc2n1-c1cccc(C(C)(C)O)n1 [adavosertib] | 1.67

Same assay, conditions: 12.5 pM; days in culture: 260

SMILES | CTG-3D luminescence at 96 h
CC(C)(C(=O)NCC(F)(F)C(F)(F)F)C(=O)N[C@@H]1C(=O)Nc2ccccc2-c2ccccc21 | 2.5
CCN(c1cc(C#CCN2CCOCC2)cc(C(=O)NCc2c(C)cc(C)[nH]c2=O)c1C)[C@H]1CC[C@H](N(C)CCOC)CC1 | 2.3
NC(=O)Nc1cc(-c2cccc(F)c2)sc1C(=O)N[C@H]1CCCNC1 [AZD7762] | 1.93
O=C(/C=C/c1cccnc1)NCCCCC1CCN(C(=O)c2ccccc2)CC1 [FK866] | 2.05
CCc1c2c(nc3ccc(O)cc13)-c1cc3c(c(=O)n1C2)COC(=O)[C@]3(O)CC [SN-38] | 2.58
CCN1CCN(Cc2ccc(Nc3ncc(F)c(-c4cc(F)c5nc(C)n(C(C)C)c5c4)n3)nc2)CC1 [abemaciclib] | 2.51
C=CCn1c(=O)c2cnc(Nc3ccc(N4CCN(C)CC4)cc3)nc2n1-c1cccc(C(C)(C)O)n1 [adavosertib] | 1.62

Same assay, conditions: 12.5 pM; days in culture: 269

SMILES | CTG-3D luminescence at 96 h
CC(C)(C(=O)NCC(F)(F)C(F)(F)F)C(=O)N[C@@H]1C(=O)Nc2ccccc2-c2ccccc21 | 1.46
CCN(c1cc(C#CCN2CCOCC2)cc(C(=O)NCc2c(C)cc(C)[nH]c2=O)c1C)[C@H]1CC[C@H](N(C)CCOC)CC1 | 1.6
NC(=O)Nc1cc(-c2cccc(F)c2)sc1C(=O)N[C@H]1CCCNC1 [AZD7762] | 1.68
O=C(/C=C/c1cccnc1)NCCCCC1CCN(C(=O)c2ccccc2)CC1 [FK866] | 1.52
CCc1c2c(nc3ccc(O)cc13)-c1cc3c(c(=O)n1C2)COC(=O)[C@]3(O)CC [SN-38] | 1.53
CCN1CCN(Cc2ccc(Nc3ncc(F)c(-c4cc(F)c5nc(C)n(C(C)C)c5c4)n3)nc2)CC1 [abemaciclib] | 1.53
C=CCn1c(=O)c2cnc(Nc3ccc(N4CCN(C)CC4)cc3)nc2n1-c1cccc(C(C)(C)O)n1 [adavosertib] | 1.43

Same assay, conditions: 12.5 pM; days in culture: 327

SMILES | CTG-3D luminescence at 96 h
CC(C)(C(=O)NCC(F)(F)C(F)(F)F)C(=O)N[C@@H]1C(=O)Nc2ccccc2-c2ccccc21 | 1.38
CCN(c1cc(C#CCN2CCOCC2)cc(C(=O)NCc2c(C)cc(C)[nH]c2=O)c1C)[C@H]1CC[C@H](N(C)CCOC)CC1 | 2.1
NC(=O)Nc1cc(-c2cccc(F)c2)sc1C(=O)N[C@H]1CCCNC1 [AZD7762] | 1.38
O=C(/C=C/c1cccnc1)NCCCCC1CCN(C(=O)c2ccccc2)CC1 [FK866] | 1.45
CCc1c2c(nc3ccc(O)cc13)-c1cc3c(c(=O)n1C2)COC(=O)[C@]3(O)CC [SN-38] | 1.72
CCN1CCN(Cc2ccc(Nc3ncc(F)c(-c4cc(F)c5nc(C)n(C(C)C)c5c4)n3)nc2)CC1 [abemaciclib] | 1.46
C=CCn1c(=O)c2cnc(Nc3ccc(N4CCN(C)CC4)cc3)nc2n1-c1cccc(C(C)(C)O)n1 [adavosertib] | 1.54

Same assay, conditions: 12.5 pM; days in culture: 346

SMILES | CTG-3D luminescence at 96 h
CC(C)(C(=O)NCC(F)(F)C(F)(F)F)C(=O)N[C@@H]1C(=O)Nc2ccccc2-c2ccccc21 | 1.54
CCN(c1cc(C#CCN2CCOCC2)cc(C(=O)NCc2c(C)cc(C)[nH]c2=O)c1C)[C@H]1CC[C@H](N(C)CCOC)CC1 | 1.71
NC(=O)Nc1cc(-c2cccc(F)c2)sc1C(=O)N[C@H]1CCCNC1 [AZD7762] | 1.38
O=C(/C=C/c1cccnc1)NCCCCC1CCN(C(=O)c2ccccc2)CC1 [FK866] | 1.25
CCc1c2c(nc3ccc(O)cc13)-c1cc3c(c(=O)n1C2)COC(=O)[C@]3(O)CC [SN-38] | 1.26
CCN1CCN(Cc2ccc(Nc3ncc(F)c(-c4cc(F)c5nc(C)n(C(C)C)c5c4)n3)nc2)CC1 [abemaciclib] | 1.39
C=CCn1c(=O)c2cnc(Nc3ccc(N4CCN(C)CC4)cc3)nc2n1-c1cccc(C(C)(C)O)n1 [adavosertib] | 1.44

Same assay, conditions: 12.5 pM; days in culture: 364

SMILES | CTG-3D luminescence at 96 h
CC(C)(C(=O)NCC(F)(F)C(F)(F)F)C(=O)N[C@@H]1C(=O)Nc2ccccc2-c2ccccc21 | 1.49
CCN(c1cc(C#CCN2CCOCC2)cc(C(=O)NCc2c(C)cc(C)[nH]c2=O)c1C)[C@H]1CC[C@H](N(C)CCOC)CC1 | 1.74
NC(=O)Nc1cc(-c2cccc(F)c2)sc1C(=O)N[C@H]1CCCNC1 [AZD7762] | 1.53
O=C(/C=C/c1cccnc1)NCCCCC1CCN(C(=O)c2ccccc2)CC1 [FK866] | 1.18
CCc1c2c(nc3ccc(O)cc13)-c1cc3c(c(=O)n1C2)COC(=O)[C@]3(O)CC [SN-38] | 1.37
CCN1CCN(Cc2ccc(Nc3ncc(F)c(-c4cc(F)c5nc(C)n(C(C)C)c5c4)n3)nc2)CC1 [abemaciclib] | 1.39
C=CCn1c(=O)c2cnc(Nc3ccc(N4CCN(C)CC4)cc3)nc2n1-c1cccc(C(C)(C)O)n1 [adavosertib] | 1.41
